This series can be described thus: Blood concentration of TE-031 after oral administration to Beagle dogs (bioassay method). Type of series: in vivo. The settings on record: dog, male Beagle dogs. Here is the method:
Test Animals Five male Beagle dogs weighing 10 kg were used as experimental animals. Sample The pharmaceutical preparation obtained in Example 1 (coated particles containing 39% of TE-031 prepared by using AEA powder having an average particle diameter of 16 microns as the powder bed) was used in an amount of 100 mg as TE-031. Testing procedure The sample was orally administered together with water to the experimental animals, and the concentration of TE-031 in the blood was measured by the bioassay method. Then after a period of 10 days during which the sample was not administered, a capsule containing 100 mg of the bulk of TE-031 was orally administered as a control together with water. The concentration of TE-031 in the blood was likewise measured by bioassay.

Results on one compound are retold here after US4892740A, “Orally administrable pharmaceutical preparation of improved flavoring characteristics” (Taisho Pharmaceutical Co., Ltd., priority 1987, dated 1990).

In the case of `CC[C@H]1OC(=O)[C@H](C)[C@@H](O[C@H]2C[C@@](C)(OC)[C@@H](O)[C@H](C)O2)[C@H](C)[C@@H](O[C@@H]2O[C@H](C)C[C@H](N(C)C)[C@H]2O)[C@](C)(OC)C[C@@H](C)C(=O)[C@H](C)[C@@H](O)[C@]1(C)O` [bulk, 6-O-methylerythromycin A], the AUC (100 mg as TE-031, read-out: area below the blood level curve) was determined as 42400 ng·h/mL. Besides, the Cmax (100 mg as TE-031, read-out: maximum blood level) is 3060 ng/mL. In addition, under “100 mg as TE-031, read-out: time of highest blood level”, the Tmax amounted to 2 h.
